{
  "source": "patent US12435109B2",
  "about": "“Compositions and methods for dissolving protein aggregates” (REJUKON BIOPHARM INC., priority 2020, dated 2025)",
  "key": {"[1]": {"tested_on": "TIA1 protein aggregates in SH-SY5Y cells", "assay": "TIA1 protein aggregates in heat-shocked SH-SY5Y cell model", "assay_type": "cell-based", "conditions": "heat shock 42° C. 1 hour, 1 μg polypeptide-plasmid"}, "[2]": {"tested_on": "FUS protein aggregates in SH-SY5Y cells", "assay": "FUS protein aggregates in heat-shocked SH-SY5Y cell model overexpressing FUS", "assay_type": "cell-based", "conditions": "heat shock 42° C. 1 hour, 1 μg polypeptide-plasmid", "from_the_text": "Polypeptides RJK001˜RJK004 and control polypeptides RJK005˜RJK007 were transfected into the SH-SY5Y cell model overexpressing FUS-mCherry after heat stimulation. The staining of G3BP1 represents the stress granule.\nPolypeptides RJG001˜RJG003 and control polypeptide RJK005 were transfected into the SH-SY5Y cell model overexpressing FUS-mCherry after heat stimulation. The staining of G3BP1 represents the stress granule.\n(§1) An SH-SY5Y cell model that overexpresses FUS-GFP protein or TDP-43-mCherry protein was generated using the following steps:\nSH-SY5Y cells were cultured in DMEM/F12 medium containing 10% fetal bovine serum in a 37° C., 5% carbon dioxide incubator. […]\n(§2) The SH-SY5Y cell model (initially cultured at 37° C.) transfected with the FUS plasmid according to Example 2 was placed in a 42° C. incubator for 1 hour for heat shock treatment to cause FUS protein aggregation. […] Laser confocal fluorescence microscope was used to observe the accumulation of overexpressed FUS in SH-SY5Y cells.\nas §2"}, "[3]": {"tested_on": "TDP-43 protein aggregates in SH-SY5Y cells", "assay": "TDP-43 protein aggregates in heat-shocked SH-SY5Y cell model overexpressing TDP-43-mCherry", "assay_type": "cell-based", "conditions": "SH-SY5Y overexpressing TDP-43-mCherry, heat shock 42° C. 1 hour, 1 μg polypeptide-plasmid", "description": "Polypeptides RJK001˜RJK004 and control polypeptides RJK005˜RJK007 were transfected into the SH-SY5Y cell model overexpressing TDP-43-mCherry after heat stimulation. The staining of G3BP1 represents the stress granule.\nas §1\nSH-SY5Y cells were cultured in DMEM/F12 medium containing 10% fetal bovine serum in a 37° C., 5% carbon dioxide incubator. After the cell confluence reaches 80%, the culture medium was removed using a vacuum pump or pipette. The cells were washed once with PBS. Add trypsin-EDTA (0.05%) to the culture dish and incubate it in a 37° C. cell incubator for 1 min. Add twice the volume of culture medium to stop the digestion, and gently blow the cells to suspend the cells into a uniform cell suspension. Add the cell suspension to a 15 mL centrifuge tube and centrifuge at 1200 rpm for 3 minutes. Discard the supernatant and resuspend the cells in fresh complete medium. […]\nThe SH-SY5Y cell model (initially cultured at 37° C.) transfected with the TDP-43 plasmid prepared according to Example 2 was placed in a 42° C. incubator for 1 hour for heat shock treatment to cause the TDP43 protein to separate and aggregate. […] Laser confocal fluorescence microscopy was used to observe the accumulation of TDP-43 and cell-endogenous G3BP1 in SH-SY5Y cells."}, "[4]": {"tested_on": "SOD1(G93A)-GFP protein aggregates in motor neurons", "assay": "SOD1(G93A) protein aggregates in primary cultured motor neurons, live imaging", "assay_type": "cell-based, rat", "conditions": "20 μM polypeptide", "description": "Real-time imaging technology using fluorescence microscope was used to observe the cell culture. The left panel is the polypeptide RJK001; the right panel is the control polypeptide RJK005. […] The right image in each panel is the microscopic image at 24 hours after adding the polypeptides.\n(§3) An ALS rat motor neuron model that can be used to overexpress FUS-GFP protein and SOD1 (G93A) protein was generated using the following steps.\nAfter the E13.5 rat is anesthetized, open the abdominal cavity and take out the uterus to a 10 cm dish. Add HBSS, use scissors and tweezers to remove the embryos to a new 10 cm dish. Separate the head and trunk of the embryo and move to anatomical spinal cord under a stereoscope. With the torso facing up, fix the hind limbs with a microscopic forceps. After finding the translucent spine, use another microscopic forceps to lift the skin forward and upward, and then open the connection on the side of the spine. Pick up the spine from the tail. Fix the head of the spine with the back side facing up and pick up the membrane. Turn the abdomen up, peel off the membrane, most of the DRG was removed. […]\nA rat motor neuron model of ALS pathogenic SOD1 (G93A) protein aggregates was prepared according to Example 4. […] The dissolution effect of the polypeptides on proteins aggregates in motor neurons was recorded with live images using laser confocal fluorescence microscope. […]"}, "[5]": {"tested_on": "FUS-GFP protein aggregates in motor neurons", "assay": "FUS-GFP protein aggregates in primary cultured motor neurons, live imaging", "assay_type": "cell-based, rat", "conditions": "20 μM polypeptide", "description": "Real-time imaging technology using fluorescence microscope was used to observe the cell culture. […] The left 2-3 images are the microscopic images when the polypeptides were just added (0 min); the middle images are the microscopic images at different time points (30 minutes, 60 minutes, 90 minutes) after the polypeptides were added, and the right image is the microscopic image at 120 minutes after adding the polypeptides.\nas §3\nAfter the E13.5 rat is anesthetized, open the abdominal cavity and take out the uterus to a 10 cm dish. Add HBSS, use scissors and tweezers to remove the embryos to a new 10 cm dish. Separate the head and trunk of the embryo and move to anatomical spinal cord under a stereoscope. With the torso facing up, fix the hind limbs with a microscopic forceps. After finding the translucent spine, use another microscopic forceps to lift the skin forward and upward, and then open the connection on the side of the spine. Pick up the spine from the tail. Fix the head of the spine with the back side facing up and pick up the membrane. Turn the abdomen up, peel off the membrane, most of the DRG was removed. Remove the DRG attached to the spinal cord and move to a new 6 cm dish. Use micro tweezers to move the spinal cord to a 5 ml centrifuge tube, use tweezers to crush it to a size of 1 mm, add 1× Trypsin (diluted by HBSS), and place in a 37° C. incubator for 25-30 minutes. Use a 1 ml pipette tip to suck the tissue mass into the preheated 3 ml MN Medium and blow away the tissue mass. Pass the 40 um filer, transfer the cells to a 5 ml centrifuge tube, centrifuge at 400 g, 5 min to remove the supernatant. Resuspend the cells in 3 mlMN medium, take 10 ul and count. […]\nA rat motor neuron model of ALS pathogenic FUS protein aggregates was prepared according to Example 4. […] The dissolution effect of the polypeptides on proteins aggregates in motor neurons was recorded with live images using laser confocal fluorescence microscope. […]"}},
  "note": "“Also recorded” adds a separate entry of the source.",
  "data": [
    {"sequence": "TEPQEESEEEVEEPEERQQTPEVVPDDSGTFYDQTVSNDLE [RJK001, polypeptide capable of dissolving protein aggregates]", "values": [
      {"measurement": "dissolution of TIA1 protein aggregates / number of phase-separated droplets of TIA1 protein in SH-SY5Y cells versus control", "setting": "[1]", "result": "significantly less; also recorded: significant dissolving effect"},
      {"measurement": "dissolution of FUS protein aggregates / number of phase-separated droplets of FUS protein in SH-SY5Y cells versus control", "setting": "[2]", "result": "significantly less; also recorded: significant dissolving effect"},
      {"measurement": "dissolution of TDP-43 protein aggregates / number of phase-separated droplets of TDP-43 protein in SH-SY5Y cells versus control", "setting": "[3]", "result": "significantly less; also recorded: significant dissolving effect"},
      {"measurement": "aggregation of SOD1 (G93A) protein in motor neurons at 24 hours after adding polypeptide", "setting": "[4]", "result": "dissolved significantly"},
      {"measurement": "dissolving effect on SOD1 (G93A) protein aggregates in motor neurons", "setting": "[4]; motor neurons, day 10 in vitro, 24 hours", "result": "significant dissolving effect; also recorded: enhanced the dissolution"},
      {"measurement": "aggregation of ALS pathogenic FUS protein in motor neurons at 90 minutes after adding polypeptide", "setting": "[5]; 90 minutes", "result": "began to dissolve significantly"},
      {"measurement": "aggregation of ALS pathogenic FUS protein in motor neurons after 120 minutes", "setting": "[5]; 120 minutes", "result": "essentially dissolved"},
      {"measurement": "dissolving effect on FUS protein aggregates in motor neurons", "setting": "[5]; motor neurons, day 10 in vitro, up to 120 minutes", "result": "significant dissolving effect; also recorded: enhanced the dissolution"}
    ]}
  ]
}
